Source: ChEMBL document CHEMBL4028802, “DILIrank: the largest reference drug list ranked by the risk for developing drug-induced liver injury in humans” (Drug Discov Today, 2016)
Positions of bridges follow the written chain, without caps; N, C: chain ends. Non-standard residues stand in square brackets, D forms with d. Residues, ends and D or L forms follow the SMILES beside them. hArg = N=C(N)NCCCC[C@H](N)C(=O)O; Mpa = O=C(O)CCS

Assays:
Homo sapiens [1] = organism: Homo sapiens; test: Liver toxicity in human assessed as induction of drug-induced liver injury by measuring severity class index
Homo sapiens [2] = organism: Homo sapiens; test: Liver toxicity in human assessed as induction of drug-induced liver injury by measuring verified drug-induced liver injury concern status
For DILI severity class in this document: key of the grades not given here.

`CC(N)C(=O)OC(C)(C)Cc1ccc(Cl)cc1` (configuration not stated) [ALAPROCLATE] was tested, and the DILI_severity_class (Homo sapiens [1]) was 8 and the DILI_Concern (Homo sapiens [2]) was “Most-Dili-Concern”.
For `NC[C@H](O)c1ccc(O)c(O)c1` [NOREPINEPHRINE], the DILI_severity_class (Homo sapiens [1]) was 0 and the DILI_Concern (Homo sapiens [2]) was “No-Dili-Concern”.
`Oc1ccc2c(c1)[C@@]13CCCC[C@@]1(O)[C@@H](C2)N(CC1CCC1)CC3` [BUTORPHANOL] was tested, and the DILI_severity_class (Homo sapiens [1]) was 0 and the DILI_Concern (Homo sapiens [2]) was “No-Dili-Concern”.
`O=C(OCC(O)CO)c1ccccc1Nc1ccnc2cc(Cl)ccc12` (configuration not stated) [GLAFENINE] was tested, and the DILI_severity_class (Homo sapiens [1]) was 8 and the DILI_Concern (Homo sapiens [2]) was “Most-Dili-Concern”.
With `C[C@H](Cn1cnc2c(N)ncnc21)OCP(=O)(O)O` [TENOFOVIR ANHYDROUS] the DILI_severity_class (Homo sapiens [1]) was 3 and the DILI_Concern (Homo sapiens [2]) was “Less-Dili-Concern”.
In the case of `CNCCC=C1c2ccccc2CCc2ccccc21` [NORTRIPTYLINE], the DILI_severity_class (Homo sapiens [1]) is reported as 8 and the DILI_Concern (Homo sapiens [2]) is reported as “Most-Dili-Concern”.
For `Cc1ccc(-c2cc(C(F)(F)F)nn2-c2ccc(S(N)(=O)=O)cc2)cc1` [CELECOXIB], the DILI_severity_class (Homo sapiens [1]) was 3 and the DILI_Concern (Homo sapiens [2]) was “Less-Dili-Concern”.
With `CC(=O)OCC(CCn1cnc2cnc(N)nc21)COC(C)=O` [FAMCICLOVIR] the DILI_severity_class (Homo sapiens [1]) was 3 and the DILI_Concern (Homo sapiens [2]) was “Ambiguous-Dili-Concern”.
For `CCO[C@@H]1OC(=O)C[C@@H]1NC(=O)[C@@H]1CCCN2C(=O)CC[C@H](NC(=O)c3nccc4ccccc34)C(=O)N12`, the DILI_severity_class (Homo sapiens [1]) was 8 and the DILI_Concern (Homo sapiens [2]) was “Most-Dili-Concern”.
With `N=C(N)NCCCC[C@@H]1NC(=O)CCSSC[C@@H](C(N)=O)NC(=O)[C@@H]2CCCN2C(=O)[C@H](Cc2c[nH]c3ccccc23)NC(=O)[C@H](CC(=O)O)NC(=O)CNC1=O` [EPTIFIBATIDE] ([Mpa][hArg]GDWPC-NH2; disulfide 1-7) the DILI_severity_class (Homo sapiens [1]) was 0 and the DILI_Concern (Homo sapiens [2]) was “No-Dili-Concern”.
`O=C(O)COc1nn(Cc2ccccc2)c2ccccc12` [BENDAZAC] was tested, and the DILI_severity_class (Homo sapiens [1]) was 8 and the DILI_Concern (Homo sapiens [2]) was “Most-Dili-Concern”.
For `C[C@@H](Cc1ccccc1)NC(=O)[C@@H](N)CCCCN` [LISDEXAMFETAMINE], the DILI_severity_class (Homo sapiens [1]) was 3 and the DILI_Concern (Homo sapiens [2]) was “Ambiguous-Dili-Concern”.
`C[C@@H](O[C@H]1OCCN(Cc2nc(O)n(P(=O)(O)O)n2)[C@H]1c1ccc(F)cc1)c1cc(C(F)(F)F)cc(C(F)(F)F)c1` [FOSAPREPITANT] was tested, and the DILI_severity_class (Homo sapiens [1]) was 3 and the DILI_Concern (Homo sapiens [2]) was “Ambiguous-Dili-Concern”.
For VITAMIN E, the DILI_severity_class (Homo sapiens [1]) was 0 and the DILI_Concern (Homo sapiens [2]) was “No-Dili-Concern”.
`COc1ccc2[n-]c([S@+]([O-])Cc3ncc(C)c(OC)c3C)nc2c1.[Na+]` was tested, and the DILI_severity_class (Homo sapiens [1]) was 4 and the DILI_Concern (Homo sapiens [2]) was “Less-Dili-Concern”.
`CN1CCN(C2=Nc3ccccc3Oc3ccc(Cl)cc32)CC1` [LOXAPINE] was tested, and the DILI_severity_class (Homo sapiens [1]) was 5 and the DILI_Concern (Homo sapiens [2]) was “Ambiguous-Dili-Concern”.
For `CCCCc1oc2ccccc2c1C(=O)c1cc(I)c(OCCN(CC)CC)c(I)c1` [AMIODARONE], the DILI_severity_class (Homo sapiens [1]) was 8 and the DILI_Concern (Homo sapiens [2]) was “Most-Dili-Concern”.
With `CS(=O)(=O)CCNCc1ccc(-c2ccc3ncnc(Nc4ccc(OCc5cccc(F)c5)c(Cl)c4)c3c2)o1` [LAPATINIB] the DILI_severity_class (Homo sapiens [1]) was 8 and the DILI_Concern (Homo sapiens [2]) was “Most-Dili-Concern”.
With `COc1cc(C(C)=O)ccc1OCCCN1CCC(c2noc3cc(F)ccc23)CC1` [ILOPERIDONE] the DILI_severity_class (Homo sapiens [1]) was 2 and the DILI_Concern (Homo sapiens [2]) was “Ambiguous-Dili-Concern”.
With `O=C1c2cccc3c2[C@H](CCC3)CN1[C@@H]1CN2CCC1CC2` [PALONOSETRON] the DILI_severity_class (Homo sapiens [1]) was 4 and the DILI_Concern (Homo sapiens [2]) was “Ambiguous-Dili-Concern”.
For `Cc1onc(-c2ccccc2Cl)c1C(=O)N[C@@H]1C(=O)N2[C@@H]1SC(C)(C)[C@@H]2C(=O)O` [CLOXACILLIN], the DILI_severity_class (Homo sapiens [1]) was 3 and the DILI_Concern (Homo sapiens [2]) was “Less-Dili-Concern”.
`Fc1ccccc1C1=NCC(=S)N(CC(F)(F)F)c2ccc(Cl)cc21` [QUAZEPAM] was tested, and the DILI_severity_class (Homo sapiens [1]) was 0 and the DILI_Concern (Homo sapiens [2]) was “No-Dili-Concern”.
With enfuvirtide the DILI_severity_class (Homo sapiens [1]) was 3 and the DILI_Concern (Homo sapiens [2]) was “Ambiguous-Dili-Concern”.
In the case of `CC(C(=O)O)c1ccc2oc(-c3ccc(Cl)cc3)nc2c1` (configuration not stated) [BENOXAPROFEN], the DILI_severity_class (Homo sapiens [1]) is reported as 8 and the DILI_Concern (Homo sapiens [2]) is reported as “Most-Dili-Concern”.
`CCCCCCCCCCC[C@@H](C[C@@H]1OC(=O)[C@H]1CCCCCC)OC(=O)[C@H](CC(C)C)NC=O` [ORLISTAT] was tested, and the DILI_severity_class (Homo sapiens [1]) was 8 and the DILI_Concern (Homo sapiens [2]) was “Most-Dili-Concern”.
In the case of `CN1CCCC(CN2c3ccccc3Sc3ccccc32)C1` (configuration not stated) [MEPAZINE], the DILI_severity_class (Homo sapiens [1]) is reported as 8 and the DILI_Concern (Homo sapiens [2]) is reported as “Most-Dili-Concern”.
With `CN1C(=O)OC(C)(C)C1=O` [TRIMETHADIONE] the DILI_severity_class (Homo sapiens [1]) was 5 and the DILI_Concern (Homo sapiens [2]) was “Ambiguous-Dili-Concern”.
With `Cc1cc2nc3c(=O)[nH]c(=O)nc-3n(C[C@H](O)[C@H](O)[C@H](O)CO)c2cc1C` [RIBOFLAVIN] the DILI_severity_class (Homo sapiens [1]) was 0 and the DILI_Concern (Homo sapiens [2]) was “No-Dili-Concern”.
With `O=C(O[C@H]1C[C@H]2CC[C@@H](C1)[N+]21CCCC1)C(O)(c1ccccc1)c1ccccc1.[Cl-]` [TROSPIUM CHLORIDE] the DILI_severity_class (Homo sapiens [1]) was 0 and the DILI_Concern (Homo sapiens [2]) was “No-Dili-Concern”.
For `CCCCC[C@H](O)/C=C/[C@@H]1[C@H]2C/C(=C/CCCC(=O)O)O[C@H]2C[C@H]1O` [EPOPROSTENOL], the DILI_severity_class (Homo sapiens [1]) was 7 and the DILI_Concern (Homo sapiens [2]) was “Ambiguous-Dili-Concern”.
`c1cc(CN2CCCNCCNCCCNCC2)ccc1CN1CCCNCCNCCCNCC1` [PLERIXAFOR] was tested, and the DILI_severity_class (Homo sapiens [1]) was 0 and the DILI_Concern (Homo sapiens [2]) was “No-Dili-Concern”.
